# Measurements from article PMC7377239, “Cardiovascular Effects of Polychlorinated Biphenyls and Their Major Metabolites” (Environmental Health Perspectives, 2020).
# Read-outs that look alike come from different tables or passages of the source.
# Key:
# [1] = test system: iCell endothelial cells (human iPSC-derived ECs); assay: High-content imaging cytotoxicity in iCell endothelial cells, 24 h; type: cell-based; settings: Homo sapiens, Endothelial cell, iPSC-EC, 24 hr; for viability at 0.1 µM / activity at 0.1 µM: 0.10 µM; for minimal effective concentration: top concentration 100.00 µM
# How it was run: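 Human iPSC-derived endothelial cells (passages 1–5) were grown to a fibronectin-coated monolayer, then exposed 24 h at 37 °C with 0.5% DMSO vehicle. Staining was Hoechst 33342, MitoTracker Orange and calcein AM, read by high-content imaging. Point of departure came from 4-parameter logistic fits, with a 1-SD vehicle cutoff and 100 µM as the top concentration.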
# HUVECs = assay: High-content imaging cytotoxicity in HUVECs, 24 h; type: cell-based, human; settings: Homo sapiens, HUVEC, 24 h, HUVECs; for viability at 0.01 µM / activity at 0.01 µM / viability at 0.1 µM / activity at 0.1 µM / viability at 1 µM / activity at 1 µM / viability at 10 µM / activity at 10 µM / viability at 100 µM / activity at 100 µM: 0.00 µM = 100.00; for viability at 0.1 µM / activity at 0.1 µM: 0.10 µM; for minimal effective concentration: top concentration 100.00 µM
# How it was run: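 Point-of-departure values derive from four-parameter logistic fits of vehicle-normalized imaging phenotypes (Hoechst 33342, MitoTracker Orange, calcein AM). The fits follow 24 h exposure of HUVEC monolayers at 37°C and 5% CO2, with a top tested concentration of 100μM.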
# [2] = 0.00 µM control = 100.00, read-out: endo.cyto.24hr
# [3] = 0.00 µM control = 100.00, read-out: endo.mito.24hr
# [4] = 0.00 µM control = 100.00, read-out: endo.mitoint.24hr
# [5] = 0.00 µM control = 100.00, read-out: endo.nma.24hr
# [6] = 0.00 µM control = 100.00, read-out: endo.tc.24hrs
# [7] = 24 hr, read-out: huvec.cyto.24hr
# [8] = 24 hr, read-out: huvec.mito.24hr
# [9] = 24 hr, read-out: huvec.mitoint.24hr
# [10] = 24 hr, read-out: huvec.nma.24hr
# [11] = 24 hrs, read-out: huvec.tc.24hrs
structure (smiles),measurement,setting,value
Clc1ccc(-c2ccccc2)cc1 [PCB3],viability at 0.01 µM,[1]; [2],101%
same,activity at 0.01 µM,[1]; [3],101%
same,activity at 0.01 µM,[1]; [4],126%
same,activity at 0.01 µM,[1]; [5],97.7%
same,viability at 0.01 µM,[1]; [6],101%
same,viability at 0.1 µM,[1]; [2],100%
same,activity at 0.1 µM,[1]; [3],101%
same,activity at 0.1 µM,[1]; [4],109%
same,activity at 0.1 µM,[1]; [5],98%
same,viability at 0.1 µM,[1]; [6],100%
same,viability at 1 µM,[1]; [2],107%
same,activity at 1 µM,[1]; [3],107%
same,activity at 1 µM,[1]; [4],104%
same,activity at 1 µM,[1]; [5],95.8%
same,viability at 1 µM,[1]; [6],107%
same,viability at 10 µM,[1]; [2],106%
same,activity at 10 µM,[1]; [3],105%
same,activity at 10 µM,[1]; [4],100%
same,activity at 10 µM,[1]; [5],94.8%
same,viability at 10 µM,[1]; [6],106%
same,viability at 100 µM,[1]; [2],105%
same,activity at 100 µM,[1]; [3],106%
same,activity at 100 µM,[1]; [4],102%
same,activity at 100 µM,[1]; [5],95.7%
same,viability at 100 µM,[1]; [6],105%
same,minimal effective concentration,[1]; read-out: endo.cyto.24hr POD,100 µM
same,minimal effective concentration,[1]; read-out: endo.mito.24hr POD,100 µM
same,minimal effective concentration,[1]; read-out: endo.mitoint.24hr POD,100 µM
same,minimal effective concentration,[1]; read-out: endo.nma.24hr POD,100 µM
same,minimal effective concentration,[1]; read-out: endo.tc.24hrs POD,100 µM
same,viability at 0.01 µM,HUVECs; [7],83.5%
same,activity at 0.01 µM,HUVECs; [8],83.3%
same,activity at 0.01 µM,HUVECs; [9],93.5%
same,activity at 0.01 µM,HUVECs; [10],94.7%
same,viability at 0.1 µM,HUVECs; [7],87.1%
same,activity at 0.1 µM,HUVECs; [8],86.7%
same,activity at 0.1 µM,HUVECs; [9],118%
same,activity at 0.1 µM,HUVECs; [10],93%
same,viability at 1 µM,HUVECs; [7],73.5%
same,activity at 1 µM,HUVECs; [8],72.5%
same,activity at 1 µM,HUVECs; [9],97.5%
same,activity at 1 µM,HUVECs; [10],93.1%
same,viability at 10 µM,HUVECs; [7],87.9%
same,activity at 10 µM,HUVECs; [8],85.4%
same,activity at 10 µM,HUVECs; [9],76%
same,activity at 10 µM,HUVECs; [10],85.2%
same,viability at 100 µM,HUVECs; [7],56%
same,activity at 100 µM,HUVECs; [8],44.6%
same,activity at 100 µM,HUVECs; [9],51%
same,activity at 100 µM,HUVECs; [10],71%
same,minimal effective concentration,"HUVECs; 24 hr, read-out: huvec.cyto.24hr POD",100 µM
same,minimal effective concentration,"HUVECs; 24 hr, read-out: huvec.mito.24hr POD",100 µM
same,minimal effective concentration,"HUVECs; 24 hr, read-out: huvec.mitoint.24hr POD",100 µM
same,minimal effective concentration,"HUVECs; 24 hr, read-out: huvec.nma.24hr POD",100 µM
same,viability at 0.01 µM,HUVECs; [11],83.5%
same,viability at 0.1 µM,HUVECs; [11],87.1%
same,viability at 1 µM,HUVECs; [11],73.7%
same,viability at 10 µM,HUVECs; [11],88%
same,viability at 100 µM,HUVECs; [11],56.1%
same,minimal effective concentration,"HUVECs; 24 hrs, read-out: huvec.tc.24hrs POD",100 µM
